Reference: the NIST ThermoML archive (doi:10.1016/j.jct.2013.08.031)

Assay: mn = molality of the nth substance listed, in mol/kg
Settings: 74.66 kPa, Liquid, Vibrating tube method

CC(C)C[N+](CC(C)C)(CC(C)C)CC(C)C.[Br-] [tetra-iso-butyl ammonium bromide] + O
mass density [kg/m3]
Settings | m1 = 0.01022 | m1 = 0.02021 | m1 = 0.02983 | m1 = 0.03847 | m1 = 0.04829 | m1 = 0.05621 | m1 = 0.06888 | m1 = 0.07666 | m1 = 0.08623 | m1 = 0.1002
298.15 K | 997.574 | 998.092 | 998.59 | 999.027 | 999.524 | 999.922 | 1000.56 | 1000.96 | 1001.43 | 1002.15
303.15 K | 996.171 | 996.676 | 997.167 | 997.6 | 998.101 | 998.499 | 999.123 | 999.518 | 999.988 | 1000.7
308.15 K | 994.553 | 995.043 | 995.531 | 995.96 | 996.462 | 996.855 | 997.478 | 997.85 | 998.324 | 999.035

CCC(C)[N+](C(C)CC)(C(C)CC)C(C)CC.[Br-] (stereo not given) [tetra-sec-butyl ammonium bromide] + O
mass density [kg/m3]
Settings | m1 = 0.0097 | m1 = 0.01981 | m1 = 0.03014 | m1 = 0.04066 | m1 = 0.04983 | m1 = 0.0598 | m1 = 0.07027 | m1 = 0.07997 | m1 = 0.08984 | m1 = 0.1018
298.15 K | 997.488 | 997.958 | 998.439 | 998.953 | 999.408 | 999.909 | 1000.44 | 1000.95 | 1001.45 | 1002.08
303.15 K | 996.085 | 996.548 | 997.029 | 997.518 | 997.974 | 998.449 | 998.977 | 999.449 | 999.971 | 1000.56
308.15 K | 994.477 | 994.931 | 995.392 | 995.891 | 996.309 | 996.799 | 997.293 | 997.778 | 998.299 | 998.923

CCCC[N+](CCCC)(C(C)CC)C(C)CC.[Br-] (stereo not given) [N-butyl-N,N-bis(1-methylpropyl)-1-butanaminium bromide] + O
mass density [kg/m3]
Settings | m1 = 0.01181 | m1 = 0.02026 | m1 = 0.03102 | m1 = 0.04017 | m1 = 0.05043 | m1 = 0.0598 | m1 = 0.06968 | m1 = 0.08191 | m1 = 0.09038 | m1 = 0.1036
298.15 K | 997.635 | 998.067 | 998.623 | 999.106 | 999.638 | 1000.14 | 1000.66 | 1001.3 | 1001.76 | 1002.47
303.15 K | 996.234 | 996.663 | 997.215 | 997.699 | 998.223 | 998.719 | 999.241 | 999.878 | 1000.33 | 1001.03
308.15 K | 994.634 | 995.062 | 995.611 | 996.096 | 996.617 | 997.117 | 997.631 | 998.265 | 998.711 | 999.421
